# Test results as given in US20150094474A1, “AGRICULTURAL CHEMICALS” (Redx Pharma Ltd., priority 2012, published 2015).
# Assays:
# barley = assay: Herbicidal bioassay, barley (% necrosis); type: in vivo
# Procedure: (§1) A laboratory bioassay was conducted to screen ten compounds (Fluazifop (25); Ethyl fluazifop (62); five fluazifop analogues: 27, 28, 63, 64 and 65; mesofulfuron (6); and two mesosulfuron analogues: 8 and 61. for activity against Lolium perenne, barley, peas and Chinese cabbage. Compounds were diluted in DMSO. Controls were performed using both DMSO and water.
# (§2) Plants were obtained as seeds and were grown to the 2-4 true leaf stage. Plants were grown individually in seed trays. Each plant (in an approximately 3 cm diameter plug) was then detached from the tray for spraying. Environmental conditions were closely monitored and recorded and were within the optimal range of the target species.
# (§3) The compounds were screened at a range of six concentrations, eg. 0.05%, 0.01%, 0.005%, 0.001%, 0.0005% and 0.0001%. Treatments will be applied directly onto the plants, using a potter tower.
# (§4) One plant of each type will be sprayed using a potter tower. The 4 different types of weeds will be placed in a 10 cm diameter area underneath the potter sprayer and sprayed simultaneously. The growth of the plants and any Phytotoxicity effects will then be assessed at specified growth intervals, according to EPPO guideline PP1/135. Five replicates will be performed for each treatment, for each species.
# peas = assay: Herbicidal bioassay, peas (% necrosis); type: in vivo
# Procedure: as §1, §2, §3, §4
smiles,measurement,setting,value
"CC(Oc1ccc(Oc2ccc(C(F)(F)F)cn2)cc1)C(=O)O (stereo not drawn) [Compound 25, Fluazifop, reference compound]",Sum of % necrosis in barley,"barley; Dose 0.000001, Day 0",C (less than 50% necrosis)
same,Sum of % necrosis in barley,"barley; Dose 0.000001, Day 1",C (less than 50% necrosis)
same,Sum of % necrosis in barley,"barley; Dose 0.000001, Day 3",C (less than 50% necrosis)
same,Sum of % necrosis in barley,"barley; Dose 0.000001, Day 7",C (less than 50% necrosis)
same,Sum of % necrosis in barley,"barley; Dose 0.000001, Day 10",C (less than 50% necrosis)
same,Sum of % necrosis in barley,"barley; Dose 0.000001, Day 14",C (less than 50% necrosis)
same,Sum of % necrosis in barley,"barley; Dose 0.000001, Day 21",C (less than 50% necrosis)
same,Sum of % necrosis in barley,"barley; Dose 0.000005, Day 0",C (less than 50% necrosis)
same,Sum of % necrosis in barley,"barley; Dose 0.000005, Day 1",C (less than 50% necrosis)
same,Sum of % necrosis in barley,"barley; Dose 0.000005, Day 3",C (less than 50% necrosis)
same,Sum of % necrosis in barley,"barley; Dose 0.000005, Day 7",C (less than 50% necrosis)
same,Sum of % necrosis in barley,"barley; Dose 0.000005, Day 10",C (less than 50% necrosis)
same,Sum of % necrosis in barley,"barley; Dose 0.000005, Day 14",C (less than 50% necrosis)
same,Sum of % necrosis in barley,"barley; Dose 0.000005, Day 21",C (less than 50% necrosis)
same,Sum of % necrosis in barley,"barley; Dose 0.00001, Day 0",C (less than 50% necrosis)
same,Sum of % necrosis in barley,"barley; Dose 0.00001, Day 1",C (less than 50% necrosis)
same,Sum of % necrosis in barley,"barley; Dose 0.00001, Day 3",C (less than 50% necrosis)
same,Sum of % necrosis in barley,"barley; Dose 0.00001, Day 7",C (less than 50% necrosis)
same,Sum of % necrosis in barley,"barley; Dose 0.00001, Day 10",C (less than 50% necrosis)
same,Sum of % necrosis in barley,"barley; Dose 0.00001, Day 14",C (less than 50% necrosis)
same,Sum of % necrosis in barley,"barley; Dose 0.00001, Day 21",C (less than 50% necrosis)
same,Sum of % necrosis in barley,"barley; Dose 0.00005, Day 0",C (less than 50% necrosis)
same,Sum of % necrosis in barley,"barley; Dose 0.00005, Day 1",C (less than 50% necrosis)
same,Sum of % necrosis in barley,"barley; Dose 0.00005, Day 3",C (less than 50% necrosis)
same,Sum of % necrosis in barley,"barley; Dose 0.00005, Day 7",C (less than 50% necrosis)
same,Sum of % necrosis in barley,"barley; Dose 0.00005, Day 10",C (less than 50% necrosis)
same,Sum of % necrosis in barley,"barley; Dose 0.00005, Day 14",C (less than 50% necrosis)
same,Sum of % necrosis in barley,"barley; Dose 0.00005, Day 21",A (over 80% necrosis)
same,Sum of % necrosis in barley,"barley; Dose 0.0001, Day 0",C (less than 50% necrosis)
same,Sum of % necrosis in barley,"barley; Dose 0.0001, Day 1",C (less than 50% necrosis)
same,Sum of % necrosis in barley,"barley; Dose 0.0001, Day 3",C (less than 50% necrosis)
same,Sum of % necrosis in barley,"barley; Dose 0.0001, Day 7",C (less than 50% necrosis)
same,Sum of % necrosis in barley,"barley; Dose 0.0001, Day 10",C (less than 50% necrosis)
same,Sum of % necrosis in barley,"barley; Dose 0.0001, Day 14",C (less than 50% necrosis)
same,Sum of % necrosis in barley,"barley; Dose 0.0001, Day 21",A (over 80% necrosis)
same,Sum of % necrosis in barley,"barley; Dose 0.0005, Day 0",C (less than 50% necrosis)
same,Sum of % necrosis in barley,"barley; Dose 0.0005, Day 1",C (less than 50% necrosis)
same,Sum of % necrosis in barley,"barley; Dose 0.0005, Day 3",C (less than 50% necrosis)
same,Sum of % necrosis in barley,"barley; Dose 0.0005, Day 7",C (less than 50% necrosis)
same,Sum of % necrosis in barley,"barley; Dose 0.0005, Day 10",C (less than 50% necrosis)
same,Sum of % necrosis in barley,"barley; Dose 0.0005, Day 14",B (50%-80% necrosis)
same,Sum of % necrosis in barley,"barley; Dose 0.0005, Day 21",A (over 80% necrosis)
same,Sum of % necrosis in Peas,"peas; Dose 0.000001, Day 0",C (less than 50% necrosis)
same,Sum of % necrosis in Peas,"peas; Dose 0.000001, Day 1",C (less than 50% necrosis)
same,Sum of % necrosis in Peas,"peas; Dose 0.000001, Day 3",C (less than 50% necrosis)
same,Sum of % necrosis in Peas,"peas; Dose 0.000001, Day 7",C (less than 50% necrosis)
same,Sum of % necrosis in Peas,"peas; Dose 0.000001, Day 10",C (less than 50% necrosis)
same,Sum of % necrosis in Peas,"peas; Dose 0.000001, Day 14",C (less than 50% necrosis)
same,Sum of % necrosis in Peas,"peas; Dose 0.000001, Day 21",C (less than 50% necrosis)
same,Sum of % necrosis in Peas,"peas; Dose 0.000005, Day 0",C (less than 50% necrosis)
same,Sum of % necrosis in Peas,"peas; Dose 0.000005, Day 1",C (less than 50% necrosis)
same,Sum of % necrosis in Peas,"peas; Dose 0.000005, Day 3",C (less than 50% necrosis)
same,Sum of % necrosis in Peas,"peas; Dose 0.000005, Day 7",C (less than 50% necrosis)
same,Sum of % necrosis in Peas,"peas; Dose 0.000005, Day 10",C (less than 50% necrosis)
same,Sum of % necrosis in Peas,"peas; Dose 0.000005, Day 14",C (less than 50% necrosis)
same,Sum of % necrosis in Peas,"peas; Dose 0.000005, Day 21",C (less than 50% necrosis)
same,Sum of % necrosis in Peas,"peas; Dose 0.00001, Day 0",C (less than 50% necrosis)
same,Sum of % necrosis in Peas,"peas; Dose 0.00001, Day 1",C (less than 50% necrosis)
same,Sum of % necrosis in Peas,"peas; Dose 0.00001, Day 3",C (less than 50% necrosis)
same,Sum of % necrosis in Peas,"peas; Dose 0.00001, Day 7",C (less than 50% necrosis)
same,Sum of % necrosis in Peas,"peas; Dose 0.00001, Day 10",B (50%-80% necrosis)
same,Sum of % necrosis in Peas,"peas; Dose 0.00001, Day 14",B (50%-80% necrosis)
same,Sum of % necrosis in Peas,"peas; Dose 0.00001, Day 21",A (over 80% necrosis)
same,Sum of % necrosis in Peas,"peas; Dose 0.00005, Day 0",C (less than 50% necrosis)
same,Sum of % necrosis in Peas,"peas; Dose 0.00005, Day 1",C (less than 50% necrosis)
same,Sum of % necrosis in Peas,"peas; Dose 0.00005, Day 3",C (less than 50% necrosis)
same,Sum of % necrosis in Peas,"peas; Dose 0.00005, Day 7",C (less than 50% necrosis)
same,Sum of % necrosis in Peas,"peas; Dose 0.00005, Day 10",C (less than 50% necrosis)
same,Sum of % necrosis in Peas,"peas; Dose 0.00005, Day 14",C (less than 50% necrosis)
same,Sum of % necrosis in Peas,"peas; Dose 0.00005, Day 21",A (over 80% necrosis)
same,Sum of % necrosis in Peas,"peas; Dose 0.0001, Day 0",C (less than 50% necrosis)
same,Sum of % necrosis in Peas,"peas; Dose 0.0001, Day 1",C (less than 50% necrosis)
same,Sum of % necrosis in Peas,"peas; Dose 0.0001, Day 3",C (less than 50% necrosis)
same,Sum of % necrosis in Peas,"peas; Dose 0.0001, Day 7",C (less than 50% necrosis)
same,Sum of % necrosis in Peas,"peas; Dose 0.0001, Day 10",C (less than 50% necrosis)
same,Sum of % necrosis in Peas,"peas; Dose 0.0001, Day 14",C (less than 50% necrosis)
same,Sum of % necrosis in Peas,"peas; Dose 0.0001, Day 21",A (over 80% necrosis)
same,Sum of % necrosis in Peas,"peas; Dose 0.0005, Day 0",C (less than 50% necrosis)
same,Sum of % necrosis in Peas,"peas; Dose 0.0005, Day 1",C (less than 50% necrosis)
same,Sum of % necrosis in Peas,"peas; Dose 0.0005, Day 3",C (less than 50% necrosis)
same,Sum of % necrosis in Peas,"peas; Dose 0.0005, Day 7",C (less than 50% necrosis)
same,Sum of % necrosis in Peas,"peas; Dose 0.0005, Day 10",C (less than 50% necrosis)
same,Sum of % necrosis in Peas,"peas; Dose 0.0005, Day 14",C (less than 50% necrosis)
same,Sum of % necrosis in Peas,"peas; Dose 0.0005, Day 21",A (over 80% necrosis)
